Experiments:
[1] = MDSC of sparsentan and spray dried sparsentan dispersions; format: physicochemical
Protocol: MDSC was performed using a TA Instruments Q200 differential scanning calorimeter equipped with a TA instruments Refrigerated Cooling System 90. MDSC was used to measure glass transition temperature (Tg), cold crystallization (Tc), defined as a crystallization event at a temperature lower than the melt temperature, and melting temperature (Tm). Samples were placed in non-hermetic aluminum pans and heated at a constant rate of 2.0° C./min over a 25-200° C. temperature range. The system was purged by nitrogen flow at 50 mL/min to ensure inert atmosphere through the course of measurement.
Thermal properties, melting temperature (Tm), glass transition temperature (Tg), and crystallization temperature (Tc) of sparsentan was measured by MDSC. The Tg was measured via a melt-quench technique, heating past its melting temperature and rapidly cooling to trap the molten material in an amorphous state. The resulting sample was analyzed by MDSC and a Tg of 42° C. was determined (FIG. 4).

[2] = Pharmacokinetics of crystalline and amorphous sparsentan formulations, single IV or PO dose (Example 4); format: in vivo, male Sprague Dawley rats; conditions: for % F (dose-normalized AUC0-24 hr PO/IV): vs IV crystalline sparsentan 1 mg/kg
Protocol: Sparsentan was administered intravenously as a bolus injection (“IV”) or orally (“PO”) to male Sprague Dawley rats in a single dose, as described in Table 11. Four sparsentan formulations were tested: crystalline sparsentan (“Crystalline Sp”); spray dried dispersion particles formed from a 50:50 mixture of sparsentan and polyvinylpyrrolidone-vinyl acetate copolymer (“50:50 Sp:PVP-VA SDD”); spray dried dispersion particles formed from a 50:50 mixture of sparsentan and hydroxypropyl methylcellulose (“50:50 Sp:HPMC E3LV SDD”); and spray dried dispersion particles formed from a 50:50 mixture of sparsentan and hypromellose acetate succinate HG (“50:50 Sp: HPMCAS-H SDD”). Formulations were administered in a vehicle comprised of either a mixture of PEG400:ethanol:sterile water (30:30:40 v/v/v) (“A”) or a mixture of 0.5% Methocel A4M, 0.1% Tween-80 in purified water (“B”).
Blood samples were collected at 0.083 (Group 1 only), 0.25, 0.5, 1, 2, 4, 6, 8, and 24 hours post dose. Blood was collected into tubes containing K2EDTA and centrifuged, and resulting plasma samples were obtained. For each group, the following PK parameters were determined: maximum observed plasma concentration (Cmax), time of maximum observed plasma concentration (Tmax), and area under the plasma concentration-time curve (AUC). AUC from time 0 to 24 hours (AUC0-24 hr) was calculated for all groups with at least three consecutive quantifiable concentrations. For the IV dose, extrapolated null concentration (C0) was calculated and used as Cmax at time zero. For the oral doses, extrapolated value at time zero was assigned as 0.0 ng/m L. The AUC based on actual collection time point was from 0.083 to 24 hours for IV group and from 0.25 to 24 hour for PO group. Absolute bioavailability evaluation was determined as “% F” between single dose IV and oral dose, calculated as follows:
% F=Mean Dose Normalized AUC0-24 hr(PO)/Mean Dose Normalized AUC0-24 hr (IV).

[3] = Pharmacokinetics of modified release sparsentan formulations, PO (Example 5); format: in vivo, male Sprague Dawley rats; conditions: male rats
Protocol: Sparsentan was administered orally (“PO”) to male Sprague Dawley rats in a single or twice-a-day dose, as described in Table 14. Formulations were administered in a vehicle comprised of a mixture of 0.5% methylcellulose 4000 cps and 0.25% Tween 80 in distilled water. All animals were fasted overnight through approximately 4 hours post-dose. Animals receiving Formulation #2 were not fasted for the second dose administration.
Blood (approximately 0.3 mL) was collected from a jugular vein from each animal via syringe and needle and transferred into tubes containing K2EDTA at approximately 0.5, 1, 2, 4, 8 (prior to second dose for Group 2), 10, 12, and 24 hours post-dose. Another vein may be used as an alternative blood collection site. For each group, the following PK parameters were determined: maximum observed plasma concentration (Cmax), time of maximum observed plasma concentration (Tmax), and area under the plasma concentration-time curve (AUC). AUC from time 0 to 24 hours (AUC0-24 hr) was calculated for all groups with at least three consecutive quantifiable concentrations.

Tg ([1]; melt-quench technique)	physical stability ([1]; modulated ramp up to 200° C.)	% F (dose-normalized AUC0-24 hr PO/IV) ([2]; Group 2: PO 20 mg/kg)	% F (dose-normalized AUC0-24 hr PO/IV) ([2]; Group 3: PO 60 mg/kg)	Cmax increase with increasing dose (dose proportionality) ([2]; oral doses 20 and 60 mg/kg, male rats)	Cmax ([3]; Sprague Dawley, rat, 60 mg/kg/day, plasma, dose mg/kg/day #1 60, #2 60 (30 x 2, from first dose), #3 38, #4 28.8, #5 30, #6 28.6)	AUC ([3]; Sprague Dawley, rat, 60 mg/kg/day, plasma, dose mg/kg/day #1 60, #2 60 (total dose), #3 38, #4 28.8, #5 30, #6 28.6, read-out: AUC0.5-24 hr)	Tmax ([3]; Sprague Dawley, rat, plasma, 60 mg/kg/day, median, dose mg/kg/day #1 60, #2 60 (30 x 2, from first dose), #3 38, #4 28.8, #5 30, #6 28.6)	Cmax/Dose ([3]; dose-normalized, #2 from first dose)	AUC0.5-24 hr/Dose ([3]; dose-normalized, #2 from the total dose)	SMILES
42 °C	stable as a neat amorphous form									CCCCC1=NC2(CCCC2)C(=O)N1Cc1ccc(-c2ccccc2S(=O)(=O)Nc2noc(C)c2C)c(COCC)c1 [Sparsentan, 2-[4-[(2-butyl-4-oxo-1,3-diazaspiro[4.4]non-1-en-3-yl)methyl]-2-(ethoxymethyl)phenyl]-N-(4,5-dimethyl-1,2-oxazol-3-yl)benzenesulfonamide]
		50.1%	55.2%	approximately dose proportional	54.6 µg/mL	311 µg·h/mL	4 h	909 kg·ng/mL/mg	5189 kg·ng·h/mL/mg	CCCCC1=NC2(CCCC2)C(=O)N1Cc1ccc(-c2ccccc2S(=O)(=O)Nc2noc(C)c2C)c(COCC)c1 [crystalline sparsentan, 2-[4-[(2-butyl-4-oxo-1,3-diazaspiro[4.4]non-1-en-3-yl)methyl]-2-(ethoxymethyl)phenyl]-N-(4,5-dimethyl-1,2-oxazol-3-yl)benzenesulfonamide]
